Assays:
[1] = test system: CyD-CD47 clones 2-G09 and 2-G11; assay: CyD kill curve with 5-FC (cell count); format: cell-based
Text: Hollow triangles represent iPSCs; filled triangles represent differentiated cells.
The bicistronic vector was used to transduce induced pluripotent stem cells (iPSCs), which were then allowed to differentiate. Differentiation of CyD-CD47-expressing clones in 2D was not affected by safety switch expression (data not shown here).

[2] = test system: CD47-HSVtk clones; assay: HSVtk kill curve with GCV (flow cytometry with counting beads); format: cell-based; conditions: various amounts of GCV; after three days
Text: Calculated IC50 and R square (R^2) values for each clone are also shown.

[3] = test system: control clone; assay: GCV toxicity in control clone; format: cell-based; conditions: tested dose range
[4] = test system: CD47-HSVtk clones; conditions: range reported in literature; IC50s in CD47-HSVtk clones generally comparable; cited from earlier work
[5] = target: CD22 (Homo sapiens, UniProt P20273); conditions: affinity matured variant; read-out: CD22 binding affinity; cited from earlier work

Molecule: Nc1nc(=O)[nH]cc1F [Construct 5-FC, 5-fluorocytosine]
- killing ([1]; CyD in the presence of 5-FC, differentiated cells, clones 2-G09 and 2-G11): more than 99%
- IC50 ([1]; differentiated cells relative to iPSCs): comparable IC50s relative to iPSCs

Molecule: Nc1nc(O)c2ncn(COC(CO)CO)c2n1 [GCV, ganciclovir]
- HSVtk killing (viable cell count %) [2]: dose-response HSVtk killing was achieved
- GCV toxicity [3]: no GCV toxicity
- IC50 [4]: 10 to 100 nM

B1: m971-L7: affinity matured variant of m971 (protein)
scFv: QVQLQQSGPGMVKPSQTLSLTCAISGDSVSSNSVAWNWIRQSPSRGLEWLGRTYYRSTWYNDYAVSMKSRITINPDTNKNQFSLQLNSVTPEDTAVYYCAREVTGDLEDAFDIWGQGTMVTVSSGGGGSGGGGSGGGGSDIQMIQSPSSLSASVGDRVTITCRASQTIWSYLNWYRQRPGEAPNLLIYAASSLQSGVPSRFSGRGSGTDFTLTISSLQAEDFATYYCQQSYSIPQTFGQGTKLEIK
modifications: Synthetic: Anti-CD22 m971-L7 scFv entire sequence, with 3xG4S linker
- Kd [5]: < 0.05 nM
